Here are results for 26 compounds from patent US20150018340A1, “PIPECOLATE-DIKETOAMIDES FOR TREATMENT OF PSYCHIATRIC DISORDERS” (MAX-PLANCK-GESELLSCHAFT ZUR FÖRDERUNG DER WISSENSCHAFTEN …, priority 2011, published 2015).

Structures are written as SMILES. Where two headings read alike, the source gives them in different places.

One test has as its target T1, FKBP51 (FK1 domain) (Homo sapiens, UniProt Q13451).
T1 sequence (Q13451 42-130 limits assumed): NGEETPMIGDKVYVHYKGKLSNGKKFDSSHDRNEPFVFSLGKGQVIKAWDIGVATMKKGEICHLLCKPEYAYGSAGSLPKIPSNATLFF
Nature of the test: Fluorescence polarization assay, binding affinity to FKBP51 (FK1 domain). The settings on record: fluorescence polarization assay using tracer 2b, read-out: FKBP51FK1 IC50. As for the experimental part:
(§1) The binding affinites for FKBPs were determined as described in Kozany et al., ChemBioChem 10, 8, 2009, 1402-1410 using tracer 2b.
(§2) Table 1: Chemical compounds according to formula (I) used in fluorescence polarization assay: Binding affinity to FKBP51 (FK1 domain) and FKBP52 (FK1 domain)
Background: Polarisation of emitted light reports the rotation of a fluorescent probe.

A further test deals with T2, FKBP52 (FK1 domain) (Homo sapiens, UniProt Q02790).
T2 sequence (Q02790 50-138 limits assumed): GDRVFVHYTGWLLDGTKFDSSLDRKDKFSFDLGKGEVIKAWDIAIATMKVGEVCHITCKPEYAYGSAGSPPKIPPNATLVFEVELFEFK
In words: Fluorescence polarization assay, binding affinity to FKBP52 (FK1 domain). The following applies: fluorescence polarization assay using tracer 2b, read-out: FKBP52FK1 IC50. As to the method:
as §1, §2

As a reminder, the IC50 is the midpoint of a concentration-inhibition curve. On to `COc1ccc(CC[C@@H](OC(=O)[C@@H]2CCCCN2C(=O)C(=O)C2(O)CCCCC2C)c2cccc(OCC(=O)O)c2)cc1OC` (stereo in doubt) [Compound 6, 2-(3-((R)-3-(3,4-dimethoxyphenyl)-1-((S)-1-(2-((1R,2R)-1-hydroxy-2-methylcyclohexyl)-2-oxoacetyl)piperidine-2-carbonyloxy)propyl)phenoxy) acetic acid], for which the IC50 was 4.13 ± 0.2 µM on FKBP51 (FK1 domain) and 2.64 ± 0.19 µM on FKBP52 (FK1 domain). `CCC1CCCCC1(O)C(=O)C(=O)N1CCCC[C@H]1C(=O)O[C@H](CCc1ccc(OC)c(OC)c1)c1cccc(OCC(=O)O)c1` (stereo in doubt) [Compound 7, 2-(3-((R)-3-(3,4-dimethoxyphenyl)-1-((S)-1-(2-((1R,2R)-2-ethyl-1-hydroxycyclohexyl)-2-oxoacetyl)piperidine-2-carbonyloxy)propyl)phenoxy) acetic acid]: the IC50 at FKBP52 (FK1 domain) is 9.77 ± 1.48 µM.

Regarding `COc1ccc(CC[C@@H](OC(=O)[C@@H]2CCCCN2C(=O)C(=O)[C@]2(O)CCCC[C@H]2C)c2cccc(OCC(=O)O)c2)cc1OC` [Compound 1, 2-(3-((R)-3-(3,4-dimethoxyphenyl)-1-((S)-1-(2-((1S,2R)-1-hydroxy-2-methylcyclohexyl)-2-oxoacetyl)piperidine-2-carbonyloxy)propyl)phenoxy) acetic acid], the IC50 on FKBP51 (FK1 domain) (listed as 1*) was determined as 4.2 ± 0.11 µM; at FKBP52 (FK1 domain) (listed as 1*), 2.13 ± 0.21 µM.

For the compound `COc1ccc(CC[C@@H](OC(=O)[C@@H]2CCCCN2C(=O)C(=O)[C@]2(O)CCCC[C@H]2C)c2cccc(OCC(=O)O)c2)cc1OC` [Compound 1a], the IC50 on FKBP51 (FK1 domain) was determined as 4.27 ± 0.19 µM; at FKBP52 (FK1 domain), 2.44 ± 0.17 µM. For the compound `COc1ccc(CC[C@@H](OC(=O)[C@@H]2CCCCN2C(=O)C(=O)[C@@]2(O)CCCC[C@@H]2C)c2cccc(OCC(=O)O)c2)cc1OC` [Compound 1b], the IC50 stood at 4.54 ± 0.24 µM on FKBP51 (FK1 domain) and 2.88 ± 0.21 µM at FKBP52 (FK1 domain). On to `COc1ccc(CC[C@@H](OC(=O)[C@@H]2CCCCN2C(=O)C(=O)[C@]2(O)CCCC[C@H]2C)c2cccc(OCCN3CCOCC3)c2)cc1OC` [Compound 2, (S)—((R)-3-(3,4-dimethoxyphenyl)-1-(3-(2-morpholinoethoxy)phenyl)propyl) 1-(2-((1S,2R)-1-hydroxy-2-methylcyclohexyl)-2-oxoacetyl)piperidine-2-carboxylate], for which the results for the IC50 at FKBP51 (FK1 domain) and on FKBP52 (FK1 domain) were 2.02 ± 0.14 µM and 0.89 ± 0.06 µM, respectively. For the compound `CC[C@@H]1CCCC[C@@]1(O)C(=O)C(=O)N1CCCC[C@H]1C(=O)O[C@H](CCc1ccc(OC)c(OC)c1)c1cccc(OCC(=O)O)c1` [Compound 3, 2-(3-((R)-3-(3,4-dimethoxyphenyl)-1-((S)-1-(2-((1S,2R)-2-ethyl-1-hydroxy-cyclohexyl)-2-oxoacetyl)piperidine-2-carbonyloxy)propyl)phenoxy) acetic acid], the IC50 on FKBP52 (FK1 domain) (listed as 3*) was determined as 9.5 ± 1.3 µM.

With `CC[C@@H]1CCCC[C@@]1(O)C(=O)C(=O)N1CCCC[C@H]1C(=O)O[C@H](CCc1ccc(OC)c(OC)c1)c1cccc(OCC(=O)O)c1` [Compound 3a], the IC50 at FKBP52 (FK1 domain) amounted to 4.2 ± 0.3 µM.

For `CC[C@H]1CCCC[C@]1(O)C(=O)C(=O)N1CCCC[C@H]1C(=O)O[C@H](CCc1ccc(OC)c(OC)c1)c1cccc(OCC(=O)O)c1` [Compound 3b], the IC50 on FKBP52 (FK1 domain) came to 3.5 ± 0.6 µM. Consider `CC[C@@H]1CCCC[C@@]1(O)C(=O)C(=O)N1CCCC[C@H]1C(=O)O[C@H](CCc1ccc(OC)c(OC)c1)c1cccc(OCCN2CCOCC2)c1` [Compound 4, (S)—((R)-3-(3,4-dimethoxyphenyl)-1-(3-(2-morpholinoethoxy)phenyl)propyl)1-(2-((1S,2R)-2-ethyl-1-hydroxycyclohexyl)-2-oxoacetyl)piperidine-2-carboxylate], for which the values for the IC50 at FKBP51 (FK1 domain) and on FKBP52 (FK1 domain) were 9.66 ± 0.83 µM and 3.72 ± 1.02 µM, respectively.

For `COc1ccc(CC[C@@H](OC(=O)[C@@H]2CCCCN2C(=O)C(=O)[C@]2(O)CCCC[C@H]2CO)c2cccc(OCC(=O)O)c2)cc1OC` [Compound 5, 2-(3-((R)-3-(3,4-dimethoxyphenyl)-1-((S)-1-(2-((1S,2S)-1-hydroxy-2-(hydroxylmethyl)cyclohexyl)-2-oxoacetyl)piperidine-2-carbonyloxy)propyl)phenoxy)acetic acid], the values for the IC50 at FKBP51 (FK1 domain) and on FKBP52 (FK1 domain) were 8.5 ± 0.6 µM and 6.2 ± 0.5 µM, respectively.

Consider `COc1ccc(CC[C@@H](OC(=O)[C@@H]2CCCCN2C(=O)C(=O)[C@]2(O)CCCC[C@@H]2C)c2cccc(OCC(=O)O)c2)cc1OC` [Compound 6a], for which the IC50 on FKBP51 (FK1 domain) was determined as 4.18 ± 0.15 µM; on FKBP52 (FK1 domain), 2.2 ± 0.13 µM. With `COc1ccc(CC[C@@H](OC(=O)[C@@H]2CCCCN2C(=O)C(=O)[C@@]2(O)CCCC[C@H]2C)c2cccc(OCC(=O)O)c2)cc1OC` [Compound 6b], the IC50 on FKBP51 (FK1 domain) worked out at 4.96 ± 0.25 µM; at FKBP52 (FK1 domain), 2.64 ± 0.25 µM.

For the compound `COc1ccc(CC[C@@H](OC(=O)[C@@H]2CCCCN2C(=O)C(=O)C2CCCCC2)c2cccc(OCC(=O)O)c2)cc1OC` [Compound 8], the IC50 at FKBP51 (FK1 domain) came to 15.2 ± 1.04 µM; on FKBP52 (FK1 domain), 9.53 ± 1.35 µM. Consider `COc1ccc(CC[C@@H](OC(=O)[C@@H]2CCCCN2C(=O)C(=O)c2cc(OC)c(OC)c(OC)c2)c2cccc(OCC(=O)O)c2)cc1OC` [Compound 9, 2-(3-((R)-3-(3,4-dimethoxyphenyl)-1-((S)-1-(2-oxo-2-(3,4,5-tri-methoxyphenyl)acetyl)piperidine-2-carbonyloxy)propyl)phenoxy)acetic acid], for which the IC50 on FKBP51 (FK1 domain) came to 19.3 ± 6.6 µM; on FKBP52 (FK1 domain) it was 11.6 ± 1.6 µM. For the compound `COc1ccc(CC[C@@H](OC(=O)[C@@H]2CCCCN2C(=O)C(=O)c2ccc(Oc3ccccc3)cc2)c2cccc(OCC(=O)O)c2)cc1OC` [Compound 10, 2-(3-((R)-3-(3,4-dimethoxyphenyl)-1-((S)-1-(2-oxo-2-(4-phenoxy-phenyl)acetyl)piperidine-2-carbonyloxy)propyl)phenoxy)acetic acid], the values for the IC50 on FKBP51 (FK1 domain) and at FKBP52 (FK1 domain) were 2.83 ± 0.21 µM and 1.71 ± 0.35 µM, respectively.

`COc1ccc(CC[C@@H](OC(=O)[C@@H]2CCCCN2C(=O)C(=O)c2cc(Cl)cc(Cl)c2)c2cccc(OCC(=O)O)c2)cc1OC` [Compound 11, 2-(3-((R)-3-(3,4-dimethoxyphenyl)-1-((S)-1-(2-oxo-2-(3,5-dichloro-phenyl)acetyl)piperidine-2-carbonyloxy)propyl)phenoxy)acetic acid]: the results for the IC50 on FKBP51 (FK1 domain) and on FKBP52 (FK1 domain) were 4.1 ± 0.8 µM and 5.6 ± 1.1 µM, respectively. On the same counts, the results for `COc1ccc(CCOC(=O)C2CCCCN2C(=O)C(=O)[C@]2(O)CCCC[C@H]2C)cc1OC` (stereo partly drawn) [Reference Example 1*, 3,4-dimethoxyphenethyl 1-(2-((1S,2R)-1-hydroxy-2-methyl-cyclohexyl)-2-oxoacetyl)piperidine-2-carboxylate, reference compound] are more than 100 µM and more than 100 µM.

As to `COc1ccc(OCCOC(=O)C2CCCCN2C(=O)C(=O)[C@]2(O)CCCC[C@H]2C)cc1OC` (stereo partly drawn) [Reference Example 2*, 2-(3,4-dimethoxyphenoxy)ethyl 1-(2-((1S,2R)-1-hydroxy-2-methyl-cyclohexyl)-2-oxoacetyl)piperidine-2-carboxylate, reference compound], the results for the IC50 at FKBP51 (FK1 domain) and at FKBP52 (FK1 domain) were 29.4 ± 8.5 µM and 11.7 ± 6.4 µM, respectively. As to `CC[C@@H]1CCCC[C@@]1(O)C(=O)C(=O)N1CCCCC1C(=O)OCCOc1ccc(OC)c(OC)c1` (stereo partly drawn) [Reference Example 3*, 2-(3,4-dimethoxyphenoxy)ethyl 1-(2-((1S,2R)-2-ethyl-1-hydroxy-cyclohexyl)-2-oxoacetyl) piperidine-2-carboxylate, reference compound], the IC50 at FKBP51 (FK1 domain) and on FKBP52 (FK1 domain) was more than 100 µM in each case. Take `CCC(C)(C)C(=O)C(=O)N1CCC[C@H]1C(=O)O[C@H](CCc1ccc(OC)c(OC)c1)c1cccc(OCC(=O)O)c1` [Reference Example 4, 2-(3-((R)-3-(3,4-dimethoxyphenyl)-1-((S)-1-(3,3-dimethyl-2-oxopentanoyl)-pyrrolidine-2-carbonyloxy)propyl)phenoxy)acetic acid, reference compound]: the IC50 at FKBP51 (FK1 domain) was 51.5 ± 31.9 µM; on FKBP52 (FK1 domain), 41.6 ± 15.8 µM.

`CCC(C)(C)C(=O)C(=O)N1CC=CC[C@H]1C(=O)O[C@H](CCc1ccc(OC)c(OC)c1)c1cccc(OCC(=O)O)c1` [Reference Example 5, 2-(3-((R)-3-(3,4-dimethoxyphenyl)-1-((S)-1-(3,3-dimethyl-2-oxopentanoyl)-1,2,3,6-tetrahydropyridine-2-carbonyloxy)propyl)phenoxy)acetic acid, reference compound]: the IC50 at FKBP51 (FK1 domain) amounted to 32.7 ± 12.3 µM; on FKBP52 (FK1 domain), 49.2 ± 24.6 µM. With `COc1ccc(CC[C@@H](OC(=O)[C@@H]2CCCCN2C(=O)C(=O)C(C)(C)C)c2cccc(OCC(=O)O)c2)cc1OC` [Reference Example 6, reference compound], the figures for the IC50 on FKBP51 (FK1 domain) and at FKBP52 (FK1 domain) were 38.4 ± 16.5 µM and 46.2 ± 18.8 µM, respectively. On to `O=C(C(=O)N1CCCCC1C(=O)OCCCc1ccccc1)c1ccccc1` (stereo not drawn) [Reference Example 7, reference compound], for which the IC50 at FKBP51 (FK1 domain) and on FKBP52 (FK1 domain) was more than 100 µM in each case. `CCC(C)(C)C(=O)C(=O)N1CCCC1C(=O)OC(CCc1ccccc1)c1ccccc1` (stereo not drawn) [Reference Example 8, reference compound]: the IC50 on FKBP51 (FK1 domain) was 89.5 ± 21.7 µM; on FKBP52 (FK1 domain), more than 100 µM. On the same counts, the results for `CC(C)C(C)(C)C(=O)C(=O)N1CCCC[C@H]1C(=O)O[C@H](CCc1ccccc1)c1ccccc1` [Reference Example 9, reference compound] are 55.6 ± 13.1 µM and 61.2 ± 23.7 µM.
